# Values of other authors as cited in patent publication US20060099667A1, “Method for performing restrained dynamics docking of one or multiple substrates on multi-specific enzymes” (priority 2002, published 2006).
# “Also recorded” adds a separate entry of the source. Counter-ions that a name gives are not always drawn.
# What was measured:
# CYP3A7 = CYP3A7 (Homo sapiens, UniProt P24462)
# CYP3A4 = CYP3A4 (Homo sapiens, UniProt P08684)
# CYP3A5 = CYP3A5 (Homo sapiens, UniProt P20815)
# Sequence of CYP3A5 (P20815 whole entry): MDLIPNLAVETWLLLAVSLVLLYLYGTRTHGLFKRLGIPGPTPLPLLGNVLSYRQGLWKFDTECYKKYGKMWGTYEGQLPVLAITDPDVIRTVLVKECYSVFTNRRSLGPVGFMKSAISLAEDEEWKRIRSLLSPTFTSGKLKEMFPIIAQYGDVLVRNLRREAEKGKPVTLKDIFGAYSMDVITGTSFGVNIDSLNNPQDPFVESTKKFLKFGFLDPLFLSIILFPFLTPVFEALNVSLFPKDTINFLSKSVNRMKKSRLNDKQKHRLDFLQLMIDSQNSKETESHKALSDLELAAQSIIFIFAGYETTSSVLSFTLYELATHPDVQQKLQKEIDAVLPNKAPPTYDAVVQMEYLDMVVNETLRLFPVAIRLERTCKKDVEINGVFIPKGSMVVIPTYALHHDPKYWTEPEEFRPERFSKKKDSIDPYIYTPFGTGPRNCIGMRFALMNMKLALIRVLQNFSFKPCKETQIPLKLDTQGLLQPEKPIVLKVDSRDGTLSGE
# Sequence of CYP3A4 (P08684 whole entry): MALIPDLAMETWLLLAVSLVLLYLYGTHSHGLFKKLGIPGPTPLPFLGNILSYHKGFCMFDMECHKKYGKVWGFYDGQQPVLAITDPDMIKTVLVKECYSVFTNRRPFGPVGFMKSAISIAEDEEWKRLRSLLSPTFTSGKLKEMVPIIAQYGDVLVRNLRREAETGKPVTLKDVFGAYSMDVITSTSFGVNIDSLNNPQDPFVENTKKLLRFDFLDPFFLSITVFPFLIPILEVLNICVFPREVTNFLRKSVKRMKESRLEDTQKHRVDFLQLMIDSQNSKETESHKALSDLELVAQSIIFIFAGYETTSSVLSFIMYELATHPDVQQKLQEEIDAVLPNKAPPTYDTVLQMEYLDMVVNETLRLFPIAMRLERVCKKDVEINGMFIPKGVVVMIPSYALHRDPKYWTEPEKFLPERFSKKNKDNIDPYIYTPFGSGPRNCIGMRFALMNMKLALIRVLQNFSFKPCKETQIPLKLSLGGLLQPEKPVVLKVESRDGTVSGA
# Sequence of CYP3A7 (P24462 whole entry): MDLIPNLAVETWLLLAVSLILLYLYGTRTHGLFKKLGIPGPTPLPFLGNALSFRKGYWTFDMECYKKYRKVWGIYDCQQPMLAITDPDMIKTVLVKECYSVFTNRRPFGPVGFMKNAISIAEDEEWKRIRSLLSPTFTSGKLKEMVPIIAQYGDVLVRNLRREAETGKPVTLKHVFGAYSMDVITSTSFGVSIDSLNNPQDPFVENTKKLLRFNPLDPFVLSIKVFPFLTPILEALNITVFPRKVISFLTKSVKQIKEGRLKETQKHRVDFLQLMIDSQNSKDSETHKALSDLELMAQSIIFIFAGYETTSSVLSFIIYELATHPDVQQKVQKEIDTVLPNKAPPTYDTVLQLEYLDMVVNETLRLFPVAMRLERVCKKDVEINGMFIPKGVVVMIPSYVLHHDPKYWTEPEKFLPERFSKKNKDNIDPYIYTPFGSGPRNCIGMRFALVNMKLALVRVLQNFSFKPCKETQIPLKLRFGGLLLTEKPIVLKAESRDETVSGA
SMILES,position of oxidation (CYP3A7),position of oxidation (CYP3A4),position of oxidation (CYP3A5)
C[C@]12CC[C@H](OS(=O)(=O)O)CC1=CC[C@@H]1[C@@H]2CC[C@]2(C)C(=O)CC[C@@H]12 [DHEA 3 sulfate conjugate],exclusively on the 16α position,–,–
C[C@]12CC[C@H]3[C@@H](CCC4=CC(=O)CC[C@@]43C)[C@@H]1CC[C@@H]2O [testosterone],both 6β and 16α position,exclusively at the 6β position; also recorded: almost exclusively in the 6β position,almost exclusively in the 6β position
